Laboratory results: ChEMBL document CHEMBL6074717, “Advancing mitochondrial therapeutics: Synthesis and pharmacological evaluation of pyrazole-based inhibitors targeting the mitochondrial pyruvate carrier” (Eur J Med Chem, 2025)
Active and inactive are the calls of the source. The rule behind the calls is not given here.

Test system: not listed separately
Test: Kinetic solubility of the compound in PBS at pH 7.4 measured after 24 hrs by LC-MS/MS analysis
Format: physicochemical
Details: PBS, pH 7.4, read-out: Kinetic_solubility

SMILES | solubility kinetic at 24 h [µM]
N#C/C(=C\c1c[nH]nc1-c1ccc(Cl)c(Cl)c1)C(=O)O | ≥ 100
N#C/C(=C\c1c[nH]nc1-c1ccc2ccccc2c1)C(=O)O | ≥ 100
N#C/C(=C\c1c[nH]nc1-c1cccc(C(F)(F)F)c1)C(=O)O | ≥ 100

Same assay, conditions: buffer, pH 7.4, 24 h

SMILES | Kinetic_solubility [µM]
N#C/C(=C\c1c[nH]nc1-c1cccc(Br)c1)C(=O)O | 0.2
N#C/C(=C\c1c[nH]nc1-c1cc(Br)cc(Br)c1)C(=O)O | 22
CCOC(=O)/C(C#N)=C/c1c[nH]nc1-c1ccc(Cl)c(Cl)c1 | 4.8
CC(C)(C)OC(=O)/C(C#N)=C/c1c[nH]nc1-c1cccc(C(F)(F)F)c1 | 24.4

Test system: LX-2
Test: Inhibition of hepatic stellate cell activation in human LX-2 cells assessed as inhibition of TGF-beta-stimulated […] gene expression at 10 uM quantitative real-time PCR analysis
Format: functional, cell-based
Details: not given

SMILES | inhibition
N#C/C(=C\c1c[nH]nc1-c1ccc(Cl)c(Cl)c1)C(=O)O | Active
N#C/C(=C\c1c[nH]nc1-c1ccc2ccccc2c1)C(=O)O | Active

Test system: not listed separately
Test: Half life in human liver microsomes at 1 uM in presence of NADPH by LC-MS/MS analysis
Format: ADME, Microsome
Details: not given

SMILES | t1/2 [h]
N#C/C(=C\c1c[nH]nc1-c1ccc(Cl)c(Cl)c1)C(=O)O | > 2
N#C/C(=C\c1c[nH]nc1-c1ccc2ccccc2c1)C(=O)O | 1.15
CC(C)(C)OC(=O)/C(C#N)=C/c1c[nH]nc1-c1cccc(C(F)(F)F)c1 | > 2

Continued, values first:

t1/2 [h] | SMILES
0.03 | CCOC(=O)/C(C#N)=C/c1c[nH]nc1-c1ccc(Cl)c(Cl)c1
> 2 | N#C/C(=C\c1c[nH]nc1-c1cccc(Br)c1)C(=O)O
> 2 | N#C/C(=C\c1c[nH]nc1-c1cccc(C(F)(F)F)c1)C(=O)O
0.257 | N#C/C(=C\c1c[nH]nc1-c1cc(Br)cc(Br)c1)C(=O)O

Test system: not listed separately
Test: Intrinsic clearance in human liver microsomes at 1 uM in presence of NADPH by LC-MS/MS analysis
Format: ADME, Microsome
Details: not given

SMILES | Intrinsic clearance [µL/min/mg]
N#C/C(=C\c1c[nH]nc1-c1ccc(Cl)c(Cl)c1)C(=O)O | 3
N#C/C(=C\c1c[nH]nc1-c1ccc2ccccc2c1)C(=O)O | 10
CC(C)(C)OC(=O)/C(C#N)=C/c1c[nH]nc1-c1cccc(C(F)(F)F)c1 | 2

Continued, values first:

Intrinsic clearance [µL/min/mg] | SMILES
377 | CCOC(=O)/C(C#N)=C/c1c[nH]nc1-c1ccc(Cl)c(Cl)c1
3 | N#C/C(=C\c1c[nH]nc1-c1cccc(Br)c1)C(=O)O
3 | N#C/C(=C\c1c[nH]nc1-c1cccc(C(F)(F)F)c1)C(=O)O
45 | N#C/C(=C\c1c[nH]nc1-c1cc(Br)cc(Br)c1)C(=O)O

Test system: LX-2
Test: Inhibition of hepatic stellate cell activation in human LX-2 cells assessed as inhibition of TGF-beta-stimulated FN1 gene expression at 10 uM quantitative real-time PCR analysis
Format: functional, cell-based
Details: not given

SMILES | inhibition
N#C/C(=C\c1c[nH]nc1-c1ccc(Cl)c(Cl)c1)C(=O)O | Active
N#C/C(=C\c1c[nH]nc1-c1ccc2ccccc2c1)C(=O)O | Active

Target: T1, Peroxisome proliferator-activated receptor gamma (Homo sapiens, UniProt P37231)
T1 sequence (P37231 whole entry): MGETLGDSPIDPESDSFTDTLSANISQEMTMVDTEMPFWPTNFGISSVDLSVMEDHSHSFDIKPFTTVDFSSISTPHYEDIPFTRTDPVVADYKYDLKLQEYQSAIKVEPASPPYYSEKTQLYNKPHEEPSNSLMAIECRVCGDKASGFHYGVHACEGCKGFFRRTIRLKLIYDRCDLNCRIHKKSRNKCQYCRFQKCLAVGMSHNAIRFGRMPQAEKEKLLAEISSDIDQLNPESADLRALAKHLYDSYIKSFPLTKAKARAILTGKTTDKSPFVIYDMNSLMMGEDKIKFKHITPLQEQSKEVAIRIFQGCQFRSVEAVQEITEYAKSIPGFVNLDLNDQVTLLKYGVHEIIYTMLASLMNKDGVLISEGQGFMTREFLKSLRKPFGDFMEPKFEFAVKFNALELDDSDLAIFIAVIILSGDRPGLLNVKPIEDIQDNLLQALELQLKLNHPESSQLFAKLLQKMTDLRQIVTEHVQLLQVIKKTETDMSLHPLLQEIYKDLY
Test: Agonist activity at Gal4-fused PPAR-gamma (unknown origin) transfected in mouse C2C12 cells assessed as decrease in luciferase activity at 10 uM measured after 24 hrs by Dual-Glo Luciferase assay
Format: toxicity, cell-based
Details: c2c12, 24 h

SMILES | Activity
CN(CCOc1ccc(CC2SC(=O)NC2=O)cc1)c1ccccn1 (stereo not given) [ROSIGLITAZONE] | Active

Test system: not listed separately
Test: Inhibition of mitochondrial pyruvate carrier in C57BL/6J mouse cardiac mitochondria assessed as inhibition of pyruvate/malate-induced mitochondrial respiration by steady-state ADP coupled assay
Parameters: species or system Heart
Details: not given

SMILES | EC50 [nM]
N#C/C(=C\c1c[nH]nc1-c1ccccc1F)C(=O)O | 791
N#C/C(=C\c1c[nH]nc1-c1ccc2c(c1)OCO2)C(=O)O | 435
N#C/C(=C\c1c[nH]nc1-c1ccccc1Cl)C(=O)O | 516
COc1ccccc1-c1n[nH]cc1/C=C(\C#N)C(=O)O | 568
N#C/C(=C\c1c[nH]nc1-c1ccccc1)C(=O)O | 796
COc1cccc(-c2n[nH]cc2/C=C(\C#N)C(=O)O)c1 | 927
CC(C)(C)c1ccc(-c2n[nH]cc2/C=C(\C#N)C(=O)O)cc1 | 447
N#C/C(=C\c1cn(-c2ccccc2)nc1-c1ccc2ccccc2c1)C(=O)O | 789
N#C/C(=C\c1c[nH]nc1-c1cc(Cl)ccc1Cl)C(=O)O | 504
N#C/C(=C\c1cn(-c2ccccc2)nc1-c1ccc(Cl)c(Cl)c1)C(=O)O | 369
N#C/C(=C\c1c[nH]nc1-c1ccc(Cl)c(Cl)c1)C(=O)O | 107
N#C/C(=C\c1c[nH]nc1-c1ccc(Br)cc1)C(=O)O | 344
N#C/C(=C\c1cn(-c2ccccc2)nc1-c1cccc2ccccc12)C(=O)O | 707
COc1ccc(-c2n[nH]cc2/C=C(\C#N)C(=O)O)cc1OC | 808
CC(C)(C)OC(=O)/C(C#N)=C/c1c[nH]nc1-c1ccc(Cl)c(Cl)c1 | 8710
N#C/C(=C\c1c[nH]nc1-c1ccc(F)cc1)C(=O)O | 651
N#C/C(=C\c1c[nH]nc1-c1ccc2ccccc2c1)C(=O)O | 212
CC(C)(C)OC(=O)/C(C#N)=C/c1c[nH]nc1-c1cccc(C(F)(F)F)c1 | 12000
N#C/C(=C\c1c[nH]nc1-c1ccc(-c2ccccc2)cc1)C(=O)O | 919

Further lines, results first:

EC50 [nM] | SMILES
18300 | CS(=O)(=O)c1ccc(-c2n[nH]cc2/C=C(\C#N)C(=O)O)cc1
7770 | N#C/C(=C\c1c[nH]nc1-c1cccnc1)C(=O)O
4120 | N#C/C(=C\c1c[nH]nc1-c1ccc([N+](=O)[O-])cc1)C(=O)O
3890 | CCOC(=O)/C(C#N)=C/c1c[nH]nc1-c1ccc(Cl)c(Cl)c1
1290 | N#C/C(=C\c1cn(Cc2ccccc2)nc1-c1ccc2ccccc2c1)C(=O)O
1080 | N#C/C(=C\c1c[nH]nc1-c1ccc(Cl)cc1Cl)C(=O)O
810 | N#C/C(=C\c1c[nH]nc1-c1ccc(F)c([N+](=O)[O-])c1)C(=O)O
796 | N#C/C(=C\c1c[nH]nc1-c1ccc(Cl)cc1)C(=O)O
795 | COc1ccc(-c2n[nH]cc2/C=C(\C#N)C(=O)O)cc1
785 | N#C/C(=C\c1c[nH]nc1-c1cccc(F)c1)C(=O)O
722 | N#C/C(=C\c1cn(Cc2ccccc2)nc1-c1ccc(Cl)c(Cl)c1)C(=O)O
659 | COc1ccc(-c2n[nH]cc2/C=C(\C#N)C(=O)O)c(F)c1
659 | Cc1ccccc1-c1n[nH]cc1/C=C(\C#N)C(=O)O
650 | N#C/C(=C\c1c[nH]nc1-c1cccc(Cl)c1)C(=O)O
614 | CCc1ccc(-c2n[nH]cc2/C=C(\C#N)C(=O)O)cc1
568 | COc1ccc(-c2n[nH]cc2/C=C(\C#N)C(=O)O)cc1F
552 | N#C/C(=C\c1c[nH]nc1-c1cc2ccccc2s1)C(=O)O
550 | Cc1cccc(-c2n[nH]cc2/C=C(\C#N)C(=O)O)c1
543 | N#C/C(=C\c1c[nH]nc1-c1ccc(C(F)(F)F)cc1)C(=O)O
444 | N#C/C(=C\c1c[nH]nc1-c1cccc(Br)c1)C(=O)O
390 | CCn1cc(/C=C(\C#N)C(=O)O)c(-c2ccc(Cl)c(Cl)c2)n1
374 | N#C/C(=C\c1c[nH]nc1-c1cccs1)C(=O)O
273 | N#C/C(=C\c1c[nH]nc1-c1cccc2ccccc12)C(=O)O
258 | N#C/C(=C\c1c[nH]nc1-c1ccccc1C(F)(F)F)C(=O)O
241 | N#C/C(=C\c1cn(-c2ccccc2)c2ccccc12)C(=O)O
165 | N#C/C(=C\c1c[nH]nc1-c1cc(C(F)(F)F)cc(C(F)(F)F)c1)C(=O)O
108 | N#C/C(=C\c1c[nH]nc1-c1cccc(C(F)(F)F)c1)C(=O)O
70 | N#C/C(=C\c1c[nH]nc1-c1cc(Br)cc(Br)c1)C(=O)O

Test system: LX-2
Test: Inhibition of hepatic stellate cell activation in human LX-2 cells assessed as inhibition of TGF-beta-stimulated ACTA2 gene expression at 10 uM quantitative real-time PCR analysis
Format: functional, cell-based
Details: not given

SMILES | inhibition
N#C/C(=C\c1c[nH]nc1-c1ccc(Cl)c(Cl)c1)C(=O)O | Active
N#C/C(=C\c1c[nH]nc1-c1cc(Br)cc(Br)c1)C(=O)O | Active
N#C/C(=C\c1c[nH]nc1-c1ccc2ccccc2c1)C(=O)O | Active

Target: T1, Peroxisome proliferator-activated receptor gamma
Test: Agonist activity at Gal4-fused PPAR-gamma (unknown origin) transfected in mouse C2C12 cells assessed as decrease in luciferase activity at 0.2 to 20 uM measured after 24 hrs by Dual-Glo Luciferase assay
Format: toxicity, cell-based
Details: c2c12, 24 h, dose 0.2-20 µM

SMILES | Activity
N#C/C(=C\c1c[nH]nc1-c1ccc(Cl)c(Cl)c1)C(=O)O | Not_active
N#C/C(=C\c1c[nH]nc1-c1cc(Br)cc(Br)c1)C(=O)O | Not_active
N#C/C(=C\c1c[nH]nc1-c1ccc2ccccc2c1)C(=O)O | Not_active
N#C/C(=C\c1c[nH]nc1-c1cccc(C(F)(F)F)c1)C(=O)O | Not_active
